Values joined by “and” are separate entries in the source; they are usually repeats but may differ in a detail not shown here. Equal values may be shown once.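 Tested at 5 concentrations; 48 h exposure; 96-well plates; endpoints linearly interpolated, else capped at highest concentration. GI50 = concentration required for 50% inhibition of growth. TGI marks complete inhibition of growth.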 Where a SMILES comes first, the peptide text is derived from it. [ ]: non-standard residue; d: D form. The star is where a group is joined. ξ: configuration not given here. Cbz = O=C(OCc1ccccc1)*; ξK = NCCCCC(N)C(=O)O
Tests used:
Assay in all cases: NCI tumour cell line growth inhibition, 48 h
786-0 renal = test system: 786-0 renal
A498 renal = test system: A498 renal
A549 NSCLC = test system: A549 NSCLC
ACHN renal = test system: ACHN renal
CAKI-1 renal = test system: CAKI-1 renal
CCRF-CEM leukemia = test system: CCRF-CEM leukemia
COLO 205 colon = test system: COLO 205 colon
DU-145 prostate = test system: DU-145 prostate
EKVX NSCLC = test system: EKVX NSCLC
HCC-2998 colon = test system: HCC-2998 colon
HCT-116 colon = test system: HCT-116 colon
HCT-15 colon = test system: HCT-15 colon
HOP-62 NSCLC = test system: HOP-62 NSCLC
HOP-92 NSCLC = test system: HOP-92 NSCLC
HS 578T breast = test system: HS 578T breast
HT29 colon = test system: HT29 colon
IGROV1 ovarian = test system: IGROV1 ovarian
K-562 leukemia = test system: K-562 leukemia
KM12 colon = test system: KM12 colon
LOX IMVI melanoma = test system: LOX IMVI melanoma
M14 melanoma = test system: M14 melanoma
MALME-3M melanoma = test system: MALME-3M melanoma
MCF7 breast = test system: MCF7 breast
MDA-MB-231 breast = test system: MDA-MB-231 breast
MDA-MB-435 = test system: MDA-MB-435
MDA-N = test system: MDA-N
MOLT-4 leukemia = test system: MOLT-4 leukemia
NCI-H226 lung = test system: NCI-H226 lung
NCI-H23 lung = test system: NCI-H23 lung
NCI-H460 lung = test system: NCI-H460 lung
NCI-H522 lung = test system: NCI-H522 lung
NCI/ADR-RES ovarian = test system: NCI/ADR-RES ovarian
OVCAR-3 ovarian = test system: OVCAR-3 ovarian
OVCAR-4 ovarian = test system: OVCAR-4 ovarian
OVCAR-5 ovarian = test system: OVCAR-5 ovarian
OVCAR-8 ovarian = test system: OVCAR-8 ovarian
PC-3 prostate = test system: PC-3 prostate
RPMI-8226 leukemia = test system: RPMI-8226 leukemia
RXF 393 renal = test system: RXF 393 renal
SF-268 CNS = test system: SF-268 CNS
SF-295 CNS = test system: SF-295 CNS
SF-539 CNS = test system: SF-539 CNS
SK-MEL-2 melanoma = test system: SK-MEL-2 melanoma
SK-MEL-28 melanoma = test system: SK-MEL-28 melanoma
SK-MEL-5 melanoma = test system: SK-MEL-5 melanoma
SK-OV-3 ovarian = test system: SK-OV-3 ovarian
SN12C renal = test system: SN12C renal
SNB-19 CNS = test system: SNB-19 CNS
SNB-75 CNS = test system: SNB-75 CNS
SR leukemia = test system: SR leukemia
SW-620 colon = test system: SW-620 colon
T-47D breast = test system: T-47D breast
U251 CNS = test system: U251 CNS
UACC-257 melanoma = test system: UACC-257 melanoma
UACC-62 melanoma = test system: UACC-62 melanoma
UO-31 renal = test system: UO-31 renal
BT-549 breast = test system: BT-549 breast
HL-60(TB) leukemia = test system: HL-60(TB) leukemia
TK-10 renal = test system: TK-10 renal

For `NCCCCC(NC(=O)OCc1ccccc1)C(=O)NCC(N)=O` (centres undefined) (Cbz-[ξK]-Gly-NH2), the TGI (786-0 renal) was > 100 µM, the TGI (A498 renal) was > 100 µM and the TGI (A549 NSCLC) was > 100 µM. The TGI (ACHN renal) was > 100 µM, the TGI (CAKI-1 renal) was > 100 µM and the TGI (CCRF-CEM leukemia) was > 100 µM. For the same molecule, the TGI (COLO 205 colon) was > 100 µM, the TGI (DU-145 prostate) was > 100 µM and the TGI (EKVX NSCLC) was > 100 µM. The TGI (HCC-2998 colon) was > 100 µM, the TGI (HCT-116 colon) was > 100 µM and the TGI (HCT-15 colon) was > 100 µM. For the same molecule, the TGI (HOP-62 NSCLC) was > 100 µM, the TGI (HOP-92 NSCLC) was > 100 µM and the TGI (HS 578T breast) was > 100 µM. For the same molecule, the TGI (HT29 colon) was > 100 µM, the TGI (IGROV1 ovarian) was > 100 µM and the TGI (K-562 leukemia) was > 100 µM. The TGI (KM12 colon) was > 100 µM, the TGI (LOX IMVI melanoma) was > 100 µM and the TGI (M14 melanoma) was > 100 µM. The TGI (MALME-3M melanoma) was > 100 µM, the TGI (MCF7 breast) was > 100 µM and the TGI (MDA-MB-231 breast) was > 100 µM. The TGI (MDA-MB-435) was > 100 µM, the TGI (MDA-N) was > 100 µM and the TGI (MOLT-4 leukemia) was > 100 µM. The TGI (NCI-H226 lung) was > 100 µM, the TGI (NCI-H23 lung) was > 100 µM and the TGI (NCI-H460 lung) was > 100 µM. For the same molecule, the TGI (NCI-H522 lung) was > 100 µM, the TGI (NCI/ADR-RES ovarian) was > 100 µM and the TGI (OVCAR-3 ovarian) was > 100 µM. For the same molecule, the TGI (OVCAR-4 ovarian) was > 100 µM, the TGI (OVCAR-5 ovarian) was > 100 µM and the TGI (OVCAR-8 ovarian) was > 100 µM. The TGI (PC-3 prostate) was > 100 µM, the TGI (RPMI-8226 leukemia) was > 100 µM and the TGI (RXF 393 renal) was > 100 µM. For the same molecule, the TGI (SF-268 CNS) was > 100 µM, the TGI (SF-295 CNS) was > 100 µM and the TGI (SF-539 CNS) was > 100 µM. For the same molecule, the TGI (SK-MEL-2 melanoma) was > 100 µM, the TGI (SK-MEL-28 melanoma) was > 100 µM and the TGI (SK-MEL-5 melanoma) was > 100 µM. The TGI (SK-OV-3 ovarian) was > 100 µM, the TGI (SN12C renal) was > 100 µM and the TGI (SNB-19 CNS) was > 100 µM. For the same molecule, the TGI (SNB-75 CNS) was > 100 µM, the TGI (SR leukemia) was > 100 µM and the TGI (SW-620 colon) was > 100 µM. The TGI (T-47D breast) was > 100 µM, the TGI (U251 CNS) was > 100 µM and the TGI (UACC-257 melanoma) was > 100 µM. The TGI (UACC-62 melanoma) was > 100 µM and the TGI (UO-31 renal) was > 100 µM.
For `COc1ccc2[nH]c3c(C)c4ccnc(NCCCN(C)CCCNc5ccc6nnn7c8ccccc8c(=O)c5c67)c4c(C)c3c2c1`, the TGI (786-0 renal) was 1.69 µM, the TGI (A498 renal) was 2.88 µM and the TGI (A549 NSCLC) was 1.06 µM. The GI50 (ACHN renal) was 0.136 µM, the TGI (ACHN renal) was 1.29 µM and 1.55 µM and the TGI (BT-549 breast) was 3.51 µM. It also gave a TGI (CAKI-1 renal) of 2.27 µM, a TGI (CCRF-CEM leukemia) of 5.51 µM and a TGI (COLO 205 colon) of 3.53 µM. For the same molecule, the TGI (EKVX NSCLC) was 2.17 µM, the TGI (HCC-2998 colon) was 1.44 µM and the TGI (HCT-116 colon) was 1.14 µM. For the same molecule, the TGI (HCT-15 colon) was 1.57 µM, the TGI (HL-60(TB) leukemia) was 1.21 µM and the TGI (HOP-62 NSCLC) was 2.05 µM. The TGI (HS 578T breast) was 3.91 µM, the TGI (HT29 colon) was 1.36 µM and the TGI (IGROV1 ovarian) was 1.8 µM. The GI50 (KM12 colon) was 0.818 µM, the TGI (KM12 colon) was 1.8 µM and 2.33 µM and the TGI (LOX IMVI melanoma) was 1.62 µM. It also gave a TGI (M14 melanoma) of 2.13 µM, a TGI (MCF7 breast) of 1.25 µM and a TGI (MDA-MB-231 breast) of 3.19 µM. It also gave a TGI (MDA-MB-435) of 1.75 µM, a TGI (MDA-N) of 2.09 µM and a TGI (MOLT-4 leukemia) of 0.132 µM. It also gave a TGI (NCI-H23 lung) of 2.04 µM, a TGI (NCI-H460 lung) of 0.492 µM and a TGI (NCI-H522 lung) of 1.67 µM. The TGI (NCI/ADR-RES ovarian) was 2.69 µM, the TGI (OVCAR-3 ovarian) was 2.4 µM and the TGI (OVCAR-4 ovarian) was 4.72 µM. It also gave a TGI (OVCAR-5 ovarian) of 2.73 µM, a TGI (OVCAR-8 ovarian) of 2.13 µM and a TGI (PC-3 prostate) of 1.91 µM. It also gave a TGI (RPMI-8226 leukemia) of 2.19 µM, a TGI (RXF 393 renal) of 2.57 µM and a GI50 (SF-268 CNS) of 0.209 µM. For the same molecule, the TGI (SF-268 CNS) was 2.51 µM and 3.14 µM, the TGI (SF-295 CNS) was 1.44 µM and the TGI (SF-539 CNS) was 1.38 µM. The GI50 (SK-MEL-28 melanoma) was 3.45 µM, the GI50 (SK-OV-3 ovarian) was 3.29 µM and the TGI (SK-OV-3 ovarian) was > 100 µM. For the same molecule, the GI50 (SN12C renal) was 0.294 µM, the TGI (SN12C renal) was 1.99 µM and 1.67 µM and the TGI (SNB-19 CNS) was 2.42 µM. The GI50 (SNB-75 CNS) was 1.41 µM, the TGI (SNB-75 CNS) was 2.17 µM and 2.86 µM and the TGI (SR leukemia) was > 100 µM. It also gave a TGI (SW-620 colon) of 1.16 µM, a TGI (T-47D breast) of 6.94 µM and a TGI (TK-10 renal) of 2.38 µM. It also gave a TGI (U251 CNS) of 1.67 µM, a TGI (UACC-257 melanoma) of 4.75 µM and a GI50 (UO-31 renal) of 1.29 µM. The TGI (UO-31 renal) was 2.61 µM and 2.76 µM.
`CC12OC(=O)[C@@]3(O)CCC4C(C[C@H]5O[C@]56CC=CC(=O)[C@]46C)C45OC[C@H]6C(=O)O[C@@H]1C[C@@]6(C)[C@H](C4=O)C23O5` (some centres undefined) was tested, and the TGI (786-0 renal) was 2.25 µM, the TGI (A549 NSCLC) was 13.7 µM and the TGI (ACHN renal) was 8.45 µM. The TGI (CAKI-1 renal) was 7.53 µM, the TGI (CCRF-CEM leukemia) was 1.45 µM and the TGI (COLO 205 colon) was 1.93 µM. The TGI (DU-145 prostate) was 7.77 µM, the TGI (EKVX NSCLC) was 16.6 µM and the TGI (HCC-2998 colon) was 10.5 µM. It also gave a TGI (HCT-116 colon) of 4.97 µM, a TGI (HCT-15 colon) of 4.43 µM and a TGI (HOP-62 NSCLC) of 10.4 µM. It also gave a TGI (HOP-92 NSCLC) of 5.67 µM, a TGI (HS 578T breast) of 68.9 µM and a TGI (HT29 colon) of 8.99 µM. The TGI (IGROV1 ovarian) was 2.58 µM, the TGI (K-562 leukemia) was > 100 µM and the TGI (KM12 colon) was 3.97 µM. For the same molecule, the TGI (LOX IMVI melanoma) was 6.92 µM, the TGI (M14 melanoma) was 4.32 µM and the TGI (MALME-3M melanoma) was 5.72 µM. The TGI (MCF7 breast) was 3.3 µM, the TGI (MDA-MB-231 breast) was 2.58 µM and the TGI (MDA-MB-435) was 5.2 µM. The TGI (MDA-N) was 26.1 µM, the TGI (MOLT-4 leukemia) was 21.4 µM and the TGI (NCI-H226 lung) was 6.98 µM. For the same molecule, the TGI (NCI-H23 lung) was 2.18 µM, the TGI (NCI-H460 lung) was 8.69 µM and the TGI (NCI-H522 lung) was 1.77 µM. The TGI (NCI/ADR-RES ovarian) was > 100 µM, the TGI (OVCAR-3 ovarian) was 2.77 µM and the TGI (OVCAR-4 ovarian) was 8.27 µM. The TGI (OVCAR-5 ovarian) was 10.7 µM, the TGI (OVCAR-8 ovarian) was 12.6 µM and the TGI (PC-3 prostate) was 12.9 µM. The TGI (RPMI-8226 leukemia) was 2.47 µM, the TGI (RXF 393 renal) was 2.43 µM and the TGI (SF-268 CNS) was 1.91 µM. It also gave a TGI (SF-295 CNS) of 16.2 µM, a TGI (SF-539 CNS) of 0.923 µM and a TGI (SK-MEL-2 melanoma) of 9.38 µM. For the same molecule, the TGI (SK-MEL-28 melanoma) was 2.06 µM, the TGI (SK-MEL-5 melanoma) was 2.86 µM and the TGI (SK-OV-3 ovarian) was 18.6 µM. It also gave a TGI (SN12C renal) of 5.39 µM, a TGI (SNB-19 CNS) of 11.8 µM and a TGI (SNB-75 CNS) of 20.7 µM. It also gave a TGI (SR leukemia) of 2.46 µM, a TGI (SW-620 colon) of 4.87 µM and a TGI (T-47D breast) of 5.27 µM. It also gave a TGI (TK-10 renal) of 3.97 µM, a TGI (U251 CNS) of 5.77 µM and a TGI (UACC-257 melanoma) of 4.98 µM. For the same molecule, the TGI (UACC-62 melanoma) was 3.46 µM.
